pKi: −log10 of the molar value.
Test: Binding affinity towards Opioid receptor delta 1 by displacing the radioligand [3H]naltrindole from guinea pig brain membrane
With `O=C1c2ccc(O)cc2C23CCCCC2C1N(CC1CCCO1)CC3` (stereo not drawn) the pKi was 9.00.
`O=C1c2ccc(O)cc2C23CCCCC2C1N(CC1CC1)CC3` (stereo not drawn) showed a pKi of 6.82.
`C[C@H]1C2C(=O)c3ccc(O)cc3[C@@]1(C)CCN2CC1CCCO1` (stereo partly drawn) [8-Hydroxy-6,11-dimethyl-3-(tetrahydro-furan-2-ylmethyl)-3,4,5,6-tetrahydro-2H-2,6-methano-benzo[d]azocin-1-one] showed a pKi of under 4.00.

From BindingDB's records for doi:10.1021/jm9903343 (Harvard Medical School, 2000)
